The values below come from PubChem BioAssay (NCI).

Test systems include SN12C renal; SW-620 colon; NCI-H23 lung; HOP-92 NSCLC; SK-MEL-5 melanoma; U251 CNS; OVCAR-8 ovarian; DU-145 prostate; ACHN renal; OVCAR-4 ovarian.
Common to all, as to assay: inhibition of tumour cell growth, NCI panel, 48 h

Molecules are shown by their SMILES. Several values for one entry are separate records, joined by “and”; a condition that tells them apart may be missing. Identical values can stand only once.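 Grown in 96-well plates, cells were treated for 48 hours with each compound at five concentrations. Insufficient inhibition: endpoint recorded as highest concentration tested. GI50 = concentration required for 50% inhibition of growth. TGI: concentration producing complete growth inhibition.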 Some results are limits rather than exact numbers.

As to `CCOC(=O)c1c(-c2ccc(OC)c(O)c2)c(C#N)c(=S)n(C2OC(COC(C)=O)C(OC(C)=O)C(OC(C)=O)C2OC(C)=O)c1-c1ccccc1` (centres undefined), the GI50 in the assay on SN12C renal is 33.8 µM and > 100 µM; with NCI-H23 lung, 22.2 µM and > 100 µM; in the assay on SK-MEL-5 melanoma, 15.5 µM and > 100 µM; with DU-145 prostate it was 27.3 µM and > 100 µM; with ACHN renal, 36.6 µM and > 100 µM; with OVCAR-4 ovarian, 47.2 µM and > 100 µM. The TGI is > 100 µM in the assay with SN12C renal; > 100 µM in the assay on SW-620 colon; 60.3 µM and > 100 µM in the assay with NCI-H23 lung; 87.9 µM and > 100 µM in the assay with HOP-92 NSCLC; 33.4 µM and > 100 µM in the assay with SK-MEL-5 melanoma; > 100 µM with U251 CNS. Besides, the TGI in the assay with OVCAR-8 ovarian was > 100 µM; with DU-145 prostate, 76.3 µM and > 100 µM; in the assay on ACHN renal, > 100 µM; with OVCAR-4 ovarian, > 100 µM.
`C/C(CC(C)(C)N1CC1)=N\NC(=O)Nc1cccc2ccccc12`: the GI50 in the assay with SN12C renal is 5.76 µM; in the assay with SW-620 colon, 2.89 µM; in the assay with NCI-H23 lung, 3.78 µM; with HOP-92 NSCLC, 1.65 µM; with SK-MEL-5 melanoma it was 3.19 µM; in the assay on U251 CNS, 3.52 µM. Further, the GI50 was 2.64 µM in the assay with OVCAR-8 ovarian, 3.07 µM in the assay with DU-145 prostate, 2.99 µM in the assay on ACHN renal and 4.23 µM in the assay with OVCAR-4 ovarian. Besides, the TGI in the assay with SN12C renal amounted to 77.9 µM; with SW-620 colon it was 12.4 µM; with NCI-H23 lung it was 21.3 µM; in the assay on HOP-92 NSCLC it was 6.99 µM; with SK-MEL-5 melanoma, 12.2 µM; in the assay with U251 CNS it was 14.4 µM. In addition, the TGI in the assay with OVCAR-8 ovarian stood at 13.4 µM; with DU-145 prostate, 9.85 µM; with ACHN renal, 11.8 µM; in the assay with OVCAR-4 ovarian, 15.9 µM.
As for `CN(/N=C/c1ccccc1O)c1ccc2ccccc2n1`, the TGI is > 100 µM with SN12C renal; > 100 µM with SW-620 colon; 58.4 µM with NCI-H23 lung; > 100 µM with HOP-92 NSCLC; > 100 µM in the assay with SK-MEL-5 melanoma; 29.8 µM with U251 CNS. Moreover, the TGI in the assay on OVCAR-8 ovarian is > 100 µM; in the assay with DU-145 prostate, 41.3 µM; in the assay on ACHN renal, 66.6 µM; in the assay with OVCAR-4 ovarian, 67.7 µM.
Take `CCn1c(SCC(=O)Nc2cc(C(F)(F)F)ccc2Cl)nc2ccccc2c1=O`: the GI50 is 76.9 µM in the assay with SN12C renal; 53.4 µM in the assay on SW-620 colon; 46.9 µM with NCI-H23 lung; 12.1 µM in the assay on HOP-92 NSCLC; 25.1 µM in the assay on SK-MEL-5 melanoma; 30.3 µM with U251 CNS. Besides, the GI50 was 32.2 µM in the assay on OVCAR-8 ovarian, 32.3 µM with DU-145 prostate, 22.6 µM in the assay on ACHN renal and 22.5 µM with OVCAR-4 ovarian. Further, the TGI with SN12C renal was > 100 µM; in the assay on SW-620 colon it was > 100 µM; in the assay with NCI-H23 lung, > 100 µM; in the assay with HOP-92 NSCLC, 41.4 µM; with SK-MEL-5 melanoma, > 100 µM; with U251 CNS, > 100 µM. In addition, the TGI in the assay with OVCAR-8 ovarian, in the assay on DU-145 prostate, in the assay with ACHN renal and with OVCAR-4 ovarian was > 100 µM throughout.
On to `O=C(Nc1n[nH]c2nc(-c3ccc(O)cc3)c(Br)cc12)C1CC1`, for which the GI50 in the assay with SN12C renal is 3.41 µM; with SW-620 colon it was 4.36 µM; in the assay on NCI-H23 lung it was 4.78 µM; in the assay with HOP-92 NSCLC, 8.66 µM; in the assay with SK-MEL-5 melanoma, 0.607 µM; in the assay with U251 CNS, 4.39 µM. The GI50 in the assay with OVCAR-8 ovarian is 4.71 µM; with DU-145 prostate, 3.8 µM; in the assay on ACHN renal it was 2.62 µM; in the assay on OVCAR-4 ovarian it was 5.17 µM. In addition, the TGI with SN12C renal is 20.1 µM; in the assay with SW-620 colon, > 25 µM; with NCI-H23 lung, 16.8 µM; in the assay with HOP-92 NSCLC it was 18.3 µM; in the assay on SK-MEL-5 melanoma, 4.07 µM; in the assay with U251 CNS, > 20.2 µM. In addition, the TGI was > 22.1 µM in the assay on OVCAR-8 ovarian, 20.4 µM in the assay with DU-145 prostate, > 21.8 µM in the assay on ACHN renal and 14.4 µM with OVCAR-4 ovarian.
As to `CC1(C)N=c2cc3c(cc2N1c1ccc(Cl)cc1)=Nc1ccccc1N3c1ccc(Cl)cc1`, the GI50 is 7.9 µM with SN12C renal; 4.68 µM with SW-620 colon; 3.16 µM with NCI-H23 lung; 1.57 µM with HOP-92 NSCLC; 3.64 µM with SK-MEL-5 melanoma; 8.03 µM with U251 CNS. Moreover, the GI50 is 4.01 µM in the assay on OVCAR-8 ovarian, 7.45 µM with DU-145 prostate, 3.53 µM in the assay on ACHN renal and 4.33 µM in the assay on OVCAR-4 ovarian. For the same molecule, the TGI is > 100 µM with SN12C renal; 21.9 µM in the assay on SW-620 colon; 27.9 µM with NCI-H23 lung; 6.59 µM in the assay on HOP-92 NSCLC; 20.3 µM with SK-MEL-5 melanoma; > 100 µM with U251 CNS. Moreover, the TGI in the assay on OVCAR-8 ovarian is 51.9 µM; in the assay with DU-145 prostate, > 100 µM; in the assay with ACHN renal, > 100 µM; in the assay on OVCAR-4 ovarian, > 100 µM.
Consider `C#Cc1cccc(NC(=O)c2cccc(NC(=O)CCl)c2)c1`, for which the GI50 in the assay on SN12C renal was 14.9 µM; in the assay on SW-620 colon it was 4.55 µM; in the assay with NCI-H23 lung, 13.4 µM; in the assay on HOP-92 NSCLC it was 14.7 µM; in the assay on SK-MEL-5 melanoma, 15.1 µM; in the assay on U251 CNS, 12.1 µM. For the same molecule, the GI50 in the assay with OVCAR-8 ovarian is 17.5 µM; with DU-145 prostate it was 29.2 µM; with ACHN renal, 15.2 µM; in the assay with OVCAR-4 ovarian it was 15.8 µM. Besides, the TGI in the assay with SN12C renal was found to be 49.1 µM; in the assay with SW-620 colon, 17 µM; in the assay on NCI-H23 lung, 29.9 µM; in the assay with HOP-92 NSCLC, 34.6 µM; in the assay with SK-MEL-5 melanoma, 28 µM; in the assay on U251 CNS, 28.4 µM. Also, the TGI is > 82.5 µM in the assay with OVCAR-8 ovarian, > 82.5 µM with DU-145 prostate, 42.9 µM in the assay with ACHN renal and 33.9 µM in the assay with OVCAR-4 ovarian.
As for `CCCCC(OC(=O)c1ccc(N)cc1)C(=O)Nc1nc(CC(=O)OCC)cs1` (centres undefined), the GI50 is 41.6 µM with SN12C renal; 48 µM with SW-620 colon; 37.5 µM in the assay on HOP-92 NSCLC; 17.8 µM in the assay on SK-MEL-5 melanoma; 44.6 µM in the assay with U251 CNS; 40.4 µM in the assay with OVCAR-8 ovarian. The GI50 in the assay on DU-145 prostate is 36 µM; in the assay with ACHN renal, 38.8 µM; in the assay with OVCAR-4 ovarian it was 29.8 µM. For the same molecule, the TGI was > 100 µM with SN12C renal; > 100 µM in the assay with SW-620 colon; > 100 µM with HOP-92 NSCLC; 34.5 µM in the assay with SK-MEL-5 melanoma; > 100 µM with U251 CNS; > 100 µM in the assay on OVCAR-8 ovarian. For the same molecule, the TGI with DU-145 prostate, in the assay with ACHN renal and in the assay with OVCAR-4 ovarian was > 100 µM throughout.
